The text below walks through data of US7297759B2, “Peptides for increasing transfection efficiency” (Welgene, Inc., priority 2002, dated 2007).

In one assay the test system is HeLa cells. Nature of the assay: Luciferase transfection efficiency of triple complex in HeLa cells. The format is cell-based. The following applies: for luciferase activity for various peptides: DNA:peptide:DP liposomes 1:4:4 (w/w/w), compared to Tat and Sc-Tat control peptides, FIG. 9A. How it is done: In order to test transfection efficiency, the TatC peptide was precomplexed with the pcDNA3-luciferase vector DNA in 50 ul OPTI-MEM medium and was incubated for 5 minutes at room temperature. The DP liposomes was prepared in a 50 ul OPTI-MEM medium and added to the preformed complex of the TatC peptide and pcDNA3-luciferase vector DNA. The ratio of each component in the triple complex of the TatC peptide/DNA/DP liposomes was adjusted to 3:1:5 respectively. The triple complex of TatC peptide/DNA/DP liposomes was incubated for 10 minutes at room temperature and used for transfection into cells. After 5 hr incubation, 300 ul/well of the OPTI-MEM medium containing 20% Fetal Bovine Serum (FBS) was added into each transfection well. Further incubation for 16 hours was carried out before measuring transfection efficiency in luciferase activity using a luciferase assay kit (Promega, USA). To check luciferase activity of the pcDNA3-luciferase vector DNA, the following procedure was adopted. Cells were washed with PBS buffer (without Mg^2+ or Ca^2+) and lysed in 100 μl/well of 1×CCLR solution (Cell culture Lysis Reagent, 25 mM Tris-phosphate [pH 7.8], 2 mM DTT, 2 mM 1,2-diaminocyclohexane-N,N,N′,N′-tetraacetic acid, 10% glycerol, 1% Triton X-100). Cell lysates was centrifuged at 12,000×g for 1 minute and 50 ul supernatant was carefully harvested without disturbing the cell pellet. The cell lysates then mixed with 20 μl Luciferase Assay reagent. Luciferase activity was tested using a luminometer (Berthold detection systems, Sirius, Germany). As a negative control, the DP liposomes alone. […]
To examine transfection efficiency in the presence or absence of serum, the TatC/DNA(pcDNA3-luc)/DP liposomes triple complex of the present invention was transfected into HeLa and K562 cells in a medium with or without 10% FBS (FIG. 13A and B). A complex of DNA and liposomes was used as a negative control.

In a further assay the test system is WRT7/P2 cells. Kind of assay: Cellular uptake of FITC-labeled oligonucleotide. The assay is classed as cell-based, rat. The following applies: TatC peptide/DNA/LFA triple complex compared to LFA liposomes alone; FIG. 8. How it is done:
Next, transfection efficiency of nucleic acid by the triple complex was tested for oligonucleotides labeled with FITC at both ends. Oligonucleotides were complexed with the TatC peptide and LFA liposomes and were transfected to a rat monocytic cell line, WRT7/P2. The transfected cells were then assayed for FITC-fluorescence. We observed that cellular uptake of the oligonucleotides with the TatC peptide/DNA/LFA triple complex was much higher than delivered with LFA liposomes alone (FIG. 8). […] Therefore, the TatC peptide delivery system of the present invention may be effectively utilized for efficient delivery into cells regardless of the types of DNA to be delivered.

The subject of another assay is kidney of SD rats. Kind of assay: In vivo delivery of LacZ plasmid by retrograde ureteral injection, X-gal staining of kidney sections. More on the design: species or system rat. The following applies: TatC:DNA:DP=4:1:4, retrograde injection, male SD rats, compared to DNA/liposome or DNA alone, FIG. 16. How it is done:
To test the transfection efficiency of the peptide/DNA/liposomes triple complex in vivo, the following experiment was performed. Male Sprague-Dawley (SD) rats (Hamamatsu, Shizuoka, Japan) were supplied from SLC and were housed in groups of 6 with free access to standard chow and water. Male SD rats, weighing 200-250 g, were used in these experiments. After anesthesia by the intraperitoneal injection of pentobarbital (5 mg/100 g body weight), the left kidney was exposed via an abdominal midline incision. Rats were subjected to ureteral ligation proximal to the left kidney, which was followed by retrograde injection of the triple complex (TatC: DNA: DP=4:1:4) using a 24 gauge catheter syringe. Kidneys were harvested 24 hours after injection of the triple complex. and embedded in a Tissue-Tek™ OCT compound (Miles, Elkhart, Ill.) under liquid nitrogen. Tissue blocks of the perfusion-fixed kidney with 4% paraformaldehyde were cryosectioned to 10 μm thickness and mounted on Poly-Prep™ slides (Sigma, St. Louise, Mo.). After dissection of individual kidneys, kidney sections were fixed with 0.05% glutaraldehyde in PBS by perfusion for 15 min, and incubated in X-gal solution (1.5 mM potassium ferricyanide, 1.5 mM potassium ferrocyanide, and 1% X-gal) at 37° C. for 4 h. Tissue sections of 4 μm were counterstained with hematoxylin and examined using a microscope at 400 fold magnification.

Another assay has as its system cells. Kind of assay: Luciferase transfection efficiency of TatC peptide/DNA/cationic liposome triple complex (FIG. 1, FIG. 2). The assay is classed as cell-based. On the procedure:
In order to test transfection efficiency, the TatC peptide was precomplexed with the pcDNA3-luciferase vector DNA in 50 ul OPTI-MEM medium and was incubated for 5 minutes at room temperature. The DP liposomes was prepared in a 50 ul OPTI-MEM medium and added to the preformed complex of the TatC peptide and pcDNA3-luciferase vector DNA. The ratio of each component in the triple complex of the TatC peptide/DNA/DP liposomes was adjusted to 3:1:5 respectively. The triple complex of TatC peptide/DNA/DP liposomes was incubated for 10 minutes at room temperature and used for transfection into cells. After 5 hr incubation, 300 ul/well of the OPTI-MEM medium containing 20% Fetal Bovine Serum (FBS) was added into each transfection well. Further incubation for 16 hours was carried out before measuring transfection efficiency in luciferase activity using a luciferase assay kit (Promega, USA). To check luciferase activity of the pcDNA3-luciferase vector DNA, the following procedure was adopted. Cells were washed with PBS buffer (without Mg^2+ or Ca^2+) and lysed in 100 μl/well of 1×CCLR solution (Cell culture Lysis Reagent, 25 mM Tris-phosphate [pH 7.8], 2 mM DTT, 2 mM 1,2-diaminocyclohexane-N,N,N′,N′-tetraacetic acid, 10% glycerol, 1% Triton X-100). Cell lysates was centrifuged at 12,000×g for 1 minute and 50 ul supernatant was carefully harvested without disturbing the cell pellet. The cell lysates then mixed with 20 μl Luciferase Assay reagent. Luciferase activity was tested using a luminometer (Berthold detection systems, Sirius, Germany). As a negative control, the DP liposomes alone.
The TatC peptide/DNA (pcDNA3-luciferase vector)/LFA liposome complex was prepared as described in Example 3.1. Transfection was carried out according to the manufacturer's recommended protocol (Life Technologies, USA), and was tested for luciferase activity.
To deteremine if enhanced transfection efficiency could be attained, a TatC Peptide/DNA/cationic liposomes triple complex were formed by mixing them in different order. […]

Another assay deals with K562 cells. Nature of the assay: Luciferase transfection efficiency of triple complex in K562 cells. The following applies: TatC/DNA(pcDNA3-luc)/DP liposomes, FIG. 13B. The format is cell-based. On the procedure:
In order to test transfection efficiency, the TatC peptide was precomplexed with the pcDNA3-luciferase vector DNA in 50 ul OPTI-MEM medium and was incubated for 5 minutes at room temperature. The DP liposomes was prepared in a 50 ul OPTI-MEM medium and added to the preformed complex of the TatC peptide and pcDNA3-luciferase vector DNA. The ratio of each component in the triple complex of the TatC peptide/DNA/DP liposomes was adjusted to 3:1:5 respectively. The triple complex of TatC peptide/DNA/DP liposomes was incubated for 10 minutes at room temperature and used for transfection into cells. After 5 hr incubation, 300 ul/well of the OPTI-MEM medium containing 20% Fetal Bovine Serum (FBS) was added into each transfection well. Further incubation for 16 hours was carried out before measuring transfection efficiency in luciferase activity using a luciferase assay kit (Promega, USA). To check luciferase activity of the pcDNA3-luciferase vector DNA, the following procedure was adopted. […]
In order to test transfection efficiency of the triple complex, TatC peptide and liposomes (DP or LFA) were mixed with plasmid DNA in various ratios. […] Luciferase activity was then measured as described in Example 3.1.
The TatC peptide shown in Example 2.1 was modified with RGD amino acid sequence at both N-and C-termini. […] Luciferase activity was measured for each transfected cells as described in Example 3.1. […]

Assay [1] concerns 293, HT-29, HL-60, MCF-7, A549, NC1-H1299, WI-38VA13, HepG2 and Hep3B cells. Nature of the assay: Luciferase transfection efficiency of triple complex in 9 different cell lines. The format is cell-based, human. The conditions noted are these: various ratios.

RGDRKKRRQRRRPPQCRGD (RGD-TatC-RGD): in the assay with HeLa cells, the “luciferase activity for various peptides” value is listed as “markedly higher luciferase activity”.
On the same count and under the same terms, then “RKKRRQRRRPPQ (Tat) [Tat peptide containing the NLS motif without any modification, control, reference compound]”, with “comparably low”.
With RKKRRQRRRPPQC (TatC), the “cellular uptake of FITC-labeled oligonucleotides (FITC-fluorescence)” value in the assay with WRT7/P2 cells is “much higher”. The “expression of the β-galactosidase gene in kidney” value with kidney of SD rats is “observed only in the group treated with the complex composed of TatC/DNA/liposomes”. In the assay on HeLa cells, the “luciferase activity for various peptides” value is given as “markedly higher luciferase activity”. Moreover, the “luciferase activity with or without 10% FBS” value is listed as “higher in medium containing serum” with HeLa cells (TatC/DNA(pcDNA3-luc)/DP liposomes, HeLa, FIG. 13A) and “higher in medium containing serum” in the assay with K562 cells. Besides, the “transfection efficiency according to mixing order” value in the assay on cells (TatC peptide and DNA mixed first, then cationic liposome (LFA), compared with other mixing orders, FIG. 2) is listed as “highest”. In addition, the “transfection activity (luciferase)” value with cells (TatC peptide/DNA/LFA liposome complex compared to LFA liposomes only, FIG. 1) is recorded as “higher transfection activity”. The luciferase activity result was “significantly enhances luciferase activity” with cells (triple complex TatC peptide/DNA/DP liposomes 3:1:5, compared to DP liposomes alone, FIG. 1); “remarkably higher luciferase activity” in assay [1] (triple complex TatC peptide/DNA/DP, compared to DP liposomes alone, FIG. 6); “Analogous results” in assay [1] (triple complex TatC peptide/DNA/LFA, compared to liposomes alone, FIG. 7).
In the case of RKKRRQRRRPPQCRGDRGD (TatC-RGD-RGD), the “luciferase activity for various peptides” value with HeLa cells is given as “markedly higher luciferase activity”.
The same measure, in the same setting: to “RRKRQRKRRPQP (Scrambled Tat(Sc-Tat)) [scrambled Tat peptide with random disturbance of the NLS motif, negative control, reference compound]” belongs “comparably low”.
